Tests used:
Assay type in all cases: cell-based
Settings in all cases: read-out: % inhibition at 100 nM
[1] = molecular target: T1, hERG potassium channel (Homo sapiens, UniProt Q12809, S624A); experiment: whole-cell patch clamp, transfected HEK-293 cells, […], RT
T1 construct: gene KCNH2

[2] = molecular target: T2, hERG potassium channel (Homo sapiens, UniProt Q12809, Y652A); experiment: as above
T2 construct: gene KCNH2

[3] = molecular target: T3, hERG potassium channel (Homo sapiens, UniProt Q12809); experiment: whole-cell patch clamp, HEK-293 cells, […] inhibition at […] (RT), […] (PT)
T3 construct: gene KCNH2
T3 sequence (Q12809 whole entry): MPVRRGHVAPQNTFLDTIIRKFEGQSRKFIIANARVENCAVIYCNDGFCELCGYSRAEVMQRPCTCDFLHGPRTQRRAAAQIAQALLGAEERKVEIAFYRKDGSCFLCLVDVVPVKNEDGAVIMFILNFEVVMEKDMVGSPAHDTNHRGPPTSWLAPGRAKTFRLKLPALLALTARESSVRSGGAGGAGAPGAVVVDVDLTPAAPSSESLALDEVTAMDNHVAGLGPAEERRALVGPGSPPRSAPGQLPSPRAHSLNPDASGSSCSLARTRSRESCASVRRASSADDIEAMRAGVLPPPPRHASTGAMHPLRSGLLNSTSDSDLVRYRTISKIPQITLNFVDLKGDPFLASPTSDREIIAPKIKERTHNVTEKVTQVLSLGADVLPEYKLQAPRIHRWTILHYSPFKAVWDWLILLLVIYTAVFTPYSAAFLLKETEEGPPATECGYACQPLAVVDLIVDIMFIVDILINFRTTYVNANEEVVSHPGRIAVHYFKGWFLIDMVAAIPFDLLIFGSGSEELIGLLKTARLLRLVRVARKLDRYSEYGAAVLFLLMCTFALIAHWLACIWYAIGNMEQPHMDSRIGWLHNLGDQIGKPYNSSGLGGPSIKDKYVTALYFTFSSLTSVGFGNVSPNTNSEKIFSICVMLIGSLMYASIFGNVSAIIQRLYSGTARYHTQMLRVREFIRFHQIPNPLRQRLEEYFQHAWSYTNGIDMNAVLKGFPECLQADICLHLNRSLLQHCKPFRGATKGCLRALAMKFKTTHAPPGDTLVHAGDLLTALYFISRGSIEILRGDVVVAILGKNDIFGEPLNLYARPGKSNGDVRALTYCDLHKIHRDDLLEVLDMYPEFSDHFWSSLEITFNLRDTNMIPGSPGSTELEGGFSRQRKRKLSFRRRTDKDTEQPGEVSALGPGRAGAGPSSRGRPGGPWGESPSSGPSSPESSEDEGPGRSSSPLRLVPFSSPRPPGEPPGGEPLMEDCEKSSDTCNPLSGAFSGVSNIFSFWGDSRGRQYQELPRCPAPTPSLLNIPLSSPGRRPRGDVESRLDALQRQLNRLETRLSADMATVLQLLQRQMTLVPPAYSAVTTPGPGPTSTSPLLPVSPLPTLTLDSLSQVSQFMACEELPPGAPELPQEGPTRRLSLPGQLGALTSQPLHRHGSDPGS

T2 sequence (Q12809 whole entry Y652A): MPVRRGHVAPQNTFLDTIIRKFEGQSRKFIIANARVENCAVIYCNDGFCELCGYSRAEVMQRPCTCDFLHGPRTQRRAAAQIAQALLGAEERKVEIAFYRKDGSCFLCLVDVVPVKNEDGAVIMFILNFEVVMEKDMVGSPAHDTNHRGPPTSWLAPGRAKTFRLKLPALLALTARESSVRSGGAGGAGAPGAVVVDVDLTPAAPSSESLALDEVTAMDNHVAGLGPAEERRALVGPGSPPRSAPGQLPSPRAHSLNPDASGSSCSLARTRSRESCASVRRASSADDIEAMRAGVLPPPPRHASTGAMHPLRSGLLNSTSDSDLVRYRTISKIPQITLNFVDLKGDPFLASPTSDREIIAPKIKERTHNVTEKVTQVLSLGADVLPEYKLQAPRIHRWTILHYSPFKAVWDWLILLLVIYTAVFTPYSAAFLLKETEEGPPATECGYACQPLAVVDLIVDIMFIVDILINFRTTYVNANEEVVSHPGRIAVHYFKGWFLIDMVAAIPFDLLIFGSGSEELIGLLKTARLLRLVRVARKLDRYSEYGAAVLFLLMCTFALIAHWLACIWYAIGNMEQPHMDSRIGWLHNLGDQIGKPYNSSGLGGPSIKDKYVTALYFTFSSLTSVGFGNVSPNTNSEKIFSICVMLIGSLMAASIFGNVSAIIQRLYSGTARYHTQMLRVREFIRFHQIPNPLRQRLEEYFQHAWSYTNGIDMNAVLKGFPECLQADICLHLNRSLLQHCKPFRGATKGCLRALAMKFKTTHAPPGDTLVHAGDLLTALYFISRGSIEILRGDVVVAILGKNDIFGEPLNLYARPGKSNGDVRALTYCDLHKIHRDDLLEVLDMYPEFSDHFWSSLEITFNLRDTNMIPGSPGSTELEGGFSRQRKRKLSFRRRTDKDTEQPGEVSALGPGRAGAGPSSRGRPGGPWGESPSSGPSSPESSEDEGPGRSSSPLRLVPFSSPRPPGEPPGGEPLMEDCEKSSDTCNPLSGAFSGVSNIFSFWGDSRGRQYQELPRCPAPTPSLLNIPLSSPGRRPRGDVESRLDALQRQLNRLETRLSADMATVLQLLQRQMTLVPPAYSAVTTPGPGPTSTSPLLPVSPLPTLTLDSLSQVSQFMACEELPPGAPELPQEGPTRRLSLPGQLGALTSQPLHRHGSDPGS
T1 sequence (Q12809 whole entry S624A): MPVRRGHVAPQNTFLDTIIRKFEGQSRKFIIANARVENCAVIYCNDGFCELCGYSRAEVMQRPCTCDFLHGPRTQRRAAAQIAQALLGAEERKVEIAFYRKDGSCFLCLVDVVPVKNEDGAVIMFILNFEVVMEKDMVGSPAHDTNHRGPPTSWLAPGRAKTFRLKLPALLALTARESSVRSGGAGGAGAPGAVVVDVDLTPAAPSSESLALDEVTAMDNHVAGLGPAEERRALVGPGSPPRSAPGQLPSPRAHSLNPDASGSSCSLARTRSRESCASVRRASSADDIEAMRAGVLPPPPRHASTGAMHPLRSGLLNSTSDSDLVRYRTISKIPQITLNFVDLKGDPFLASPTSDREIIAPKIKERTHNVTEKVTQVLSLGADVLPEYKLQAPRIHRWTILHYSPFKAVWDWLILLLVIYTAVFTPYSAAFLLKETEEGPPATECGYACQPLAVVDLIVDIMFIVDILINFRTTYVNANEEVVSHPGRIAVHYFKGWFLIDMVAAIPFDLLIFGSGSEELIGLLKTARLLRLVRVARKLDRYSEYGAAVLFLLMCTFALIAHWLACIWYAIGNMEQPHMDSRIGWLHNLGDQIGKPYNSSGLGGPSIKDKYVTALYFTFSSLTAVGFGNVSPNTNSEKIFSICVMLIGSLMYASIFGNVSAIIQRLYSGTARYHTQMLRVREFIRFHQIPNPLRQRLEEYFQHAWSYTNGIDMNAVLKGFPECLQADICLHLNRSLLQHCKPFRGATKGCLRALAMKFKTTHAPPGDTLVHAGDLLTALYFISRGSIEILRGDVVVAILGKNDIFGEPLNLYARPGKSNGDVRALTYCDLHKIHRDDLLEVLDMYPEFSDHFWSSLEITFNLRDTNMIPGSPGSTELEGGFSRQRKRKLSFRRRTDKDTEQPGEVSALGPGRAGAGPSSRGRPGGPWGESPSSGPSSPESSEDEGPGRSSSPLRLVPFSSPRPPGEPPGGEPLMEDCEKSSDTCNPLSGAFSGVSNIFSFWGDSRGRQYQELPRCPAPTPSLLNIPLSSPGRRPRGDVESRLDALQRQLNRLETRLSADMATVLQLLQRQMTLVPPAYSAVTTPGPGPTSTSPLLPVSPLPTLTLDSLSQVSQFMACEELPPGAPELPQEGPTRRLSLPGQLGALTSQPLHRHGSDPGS

Q: How did the inhibition at 0.1 µM [1] turn out when `COc1cc(N)c(Cl)cc1C(=O)NC1CCN(CCCOc2ccc(F)cc2)CC1OC` (stereo not drawn) [cisapride] was run?
A: 44%

Q: What about the inhibition at 0.1 µM [2] of the same compound?
A: 33.9%

Q: And the inhibition at 0.1 µM [3]?
A: 75.9%
